Data from patent publication US10167270B2, “Substituted quinazoline compounds and uses thereof for modulating glucocerebrosidase activity” (Northwestern University, priority 2015, dated 2019).
“Also recorded” adds a separate entry of the source. Like-named read-outs stand apart in the source and are kept apart here.

Legend:
GCase [1] = target: T1, GCase (Homo sapiens (Human), UniProt P04062); test: Fluorescence polarization assay; type: binding
Experimental: The fluorescent probe 3 (25 nL/well, 50 nM final concentration) was transferred to a 384-well black plate using a Labcyte Echo 550 Liquid Handler system. The 25 μL/well enzyme dilutions with GCase enzyme activity buffer were added to the plate, which was shaken at room temperature in dark for 20 min. The final titration was 5 nM to 10 μM, 10 concentrations, 2 times dilution. The fluorescence polarization was measured in Molecular Devices Analyst GT with Ex=535 nm and Em=580 nm, G Factor=1.05.

wild-type GCase [2] = target: T2, wild-type GCase (Homo sapiens (Human), UniProt P04062); test: Fluorescence thermal shift analysis; type: binding; details: for stabilization of GCase (melting point change): pH 5.0, in words
T2 sequence (P04062 40-536): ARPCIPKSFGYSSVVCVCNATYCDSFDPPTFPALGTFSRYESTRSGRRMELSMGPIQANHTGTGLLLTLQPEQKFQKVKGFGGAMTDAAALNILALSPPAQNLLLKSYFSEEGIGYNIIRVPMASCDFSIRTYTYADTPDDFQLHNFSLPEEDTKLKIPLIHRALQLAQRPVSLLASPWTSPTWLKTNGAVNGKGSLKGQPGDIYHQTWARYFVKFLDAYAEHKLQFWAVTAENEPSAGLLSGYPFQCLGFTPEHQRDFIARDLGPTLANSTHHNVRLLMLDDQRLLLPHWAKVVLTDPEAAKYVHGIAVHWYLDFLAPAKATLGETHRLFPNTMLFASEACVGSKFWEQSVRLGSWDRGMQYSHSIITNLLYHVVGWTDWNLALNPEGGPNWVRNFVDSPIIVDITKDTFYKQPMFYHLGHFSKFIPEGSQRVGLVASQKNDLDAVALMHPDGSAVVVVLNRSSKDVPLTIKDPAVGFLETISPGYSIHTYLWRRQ
Description: Compounds shown to act as pharmacological chaperones for GCase (or other lysosomal enzymes) also stabilize the enzyme against thermal denaturation. A fluorescent thermal shift assay was developed to evaluate the binding affinity of ligands with protein^30. […] The maximum thermal shift of these compounds corresponded to their inhibitory activity at pH 5.0.
A robotic pipeline in the High Throughput Analysis Laboratory (HTAL) was used for protein ligand screening by fluorescence thermal shift (FTS) analysis. The pipeline used a Mosquito robot (TTP Labtech) for protein dispensing and an Echo 550 (Labcyte) to add compounds. Thermal scanning coupled with fluorescence detection was performed on a real-time PCR machine CFX384 (Bio-Rad Laboratories). The assay was run in 384-well PCR plates, using 10 μL citric acid/K2HPO4 buffer (50 mM citric acid, 150 mM K2HPO4, pH 5.0) per well. The assay concentration for protein was 1 μM and that for Sypro Orange (Invitrogen) was 5×. Protein was premixed with Sypro Orange and dispensed to a plate first, and compounds were added. Final concentrations of compounds ranged from 0.5 to 200 μM. Then the plate was sealed with an optical seal, shaken, and centrifuged. The thermal scan was from 10 to 95° C. with a temperature ramp rate of 1.5° C./min. The fluorescence was recorded every 10 sec. Data analysis and report generation were performed using the in-house software excelFTS.

GCase [3] = target: T1, GCase; test: Enzyme kinetic assay (resorufin β-D-glucopyranoside); type: biochemical; details: substrate 30-150 μM
Experimental: We further tested compounds 4 and 11g by measuring GCase activity at various substrate concentrations (30-150 μM) and in the absence or presence of increasing concentrations of GCase inhibitors.
The substrate resorufin β-D-glucopyranoside was diluted to five concentrations, ranging from 30 to 150 μM. Seven concentrations of inhibitors (between 0.5- and 5-fold of IC50 value) and a DMSO control were added to the enzyme solution. The final enzyme concentration was 10 nM to give a linear reaction over 10 min. Enzyme kinetics were measured by the addition of 66 μL of substrate to a 96-well assay plate, followed by 33 μL of enzyme solution (with or without inhibitor) using a dispense module on a Biotek Synergy H1 multi-mode plate reader. The increase in product fluorescence was measured at 1 min intervals for 10 min in the plate reader. The rate of product formation was calculated by converting the fluorescence units to nanomoles of product per minute using a standard curve of the free fluorophore, resorufin.

α-galactosidase A (GLA) = α-galactosidase A (GLA) (Homo sapiens (Human), UniProt P06280); test: Enzyme selectivity assay, α-galactosidase A; type: biochemical; details: up to 100 μM
Sequence of α-galactosidase A (GLA) (P06280 32-429): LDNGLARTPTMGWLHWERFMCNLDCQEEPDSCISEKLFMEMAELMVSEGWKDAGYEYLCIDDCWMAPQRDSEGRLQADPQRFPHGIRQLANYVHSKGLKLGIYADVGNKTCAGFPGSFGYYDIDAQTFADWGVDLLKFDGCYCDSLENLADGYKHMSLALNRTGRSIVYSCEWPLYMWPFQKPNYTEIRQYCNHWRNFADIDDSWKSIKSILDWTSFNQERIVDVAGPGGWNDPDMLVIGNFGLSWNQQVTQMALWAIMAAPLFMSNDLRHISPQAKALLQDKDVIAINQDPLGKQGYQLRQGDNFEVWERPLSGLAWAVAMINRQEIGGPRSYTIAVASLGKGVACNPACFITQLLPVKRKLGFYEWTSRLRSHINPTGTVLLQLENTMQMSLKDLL
Description: (§1) Louis, Mo.). The recombinant wild-type GCase enzyme velaglucerase alfa ([…] Human Genetic Therapies, Inc.), acid α-glucosidase enzyme alglucosidase alfa (Lumizyme®, Genzyme Corporation), α-galactosidase A enzyme agalsidase beta (Fabrazyme®, Genzyme Corporation) were used in activity assays. […] The acid α-glucosidase and α-galactosidase A enzyme activity assay methods were similar to the GCase enzyme activity assay above with slight modifications.

[4] = target: T3, N370S mutant GCase in patient fibroblasts (Homo sapiens (Human), UniProt P04062, N370S); test: GCase activity in N370S fibroblasts after compound treatment; type: cell-based; details: 3-day treatment
T3 sequence (P04062 40-536 N409S): as the sequence (P04062 40-536) above, with N370S counted along it
Experimental: (§2) The N370S fibroblast cell line was obtained from Coriell, GM00372, cultured in DMEM medium (Life Tech) including 1% v/v L-glutamine 200 mM (Life Tech), 1% v/v pen strep (Life Tech), 10% FBS (Life Tech) at 37° C. and 5% CO2 and treated with different compounds at 0.2 μM and 2 μM. After a 3-day treatment, cells were washed with inhibitor free media 3 times and fed with inhibitor free media for 1 day, followed by 1% Triton X-100 lysis buffer to lyse cells. Protein concentrations were measured with a Bradford kit (Thermo), and the GCase activity was determined at pH 5.5.

acid α-glucosidase (GAA) = acid α-glucosidase (GAA) (Homo sapiens (Human), UniProt P10253); test: Enzyme selectivity assay, acid α-glucosidase; type: biochemical; details: up to 100 μM
Description: as §1

[5] = target: T3, N370S mutant GCase in patient fibroblasts; test: GCase protein level in N370S fibroblasts by Western blot; type: cell-based; details: 3 days treatment
Experimental: as §2
Proteins were denatured in 20% SDS sample buffer at 100° C. for 10 min; 10% Bis-Tris gel (Life Tech) was used for gels; Trans-Blot Turbo PVDF kit (Bio-Rad) was used for membrane transfer, and Chemidoc MP system (Bio-Rad) was used to analyze the blots.

wild-type GCase [6] = target: T2, wild-type GCase; test: GCase enzyme activity assay (4MU-β-Glc, no taurocholate); type: biochemical
Experimental: In previous studies, high concentrations of taurocholate (4-10 mM) were used to improve the signal in GCase enzyme activity assays^16,27,28. […] Here we describe our modifications of the substituents on the quinazoline ring.
4-Methylumbelliferyl β-D-glucopyranoside (4MU-β-Glc), 4-methylumbelliferyl α-D-glucopyranoside,4-methylumbelliferyl α-D-galactopyranoside, and buffer components were purchased from Sigma-Aldrich (St. Louis, Mo.). The recombinant wild-type GCase enzyme velaglucerase alfa (Vpriv®, Shire Human Genetic Therapies, Inc.), acid α-glucosidase enzyme alglucosidase alfa (Lumizyme®, Genzyme Corporation), α-galactosidase A enzyme agalsidase beta (Fabrazyme®, Genzyme Corporation) were used in activity assays. […] A solution of 1 M sodium hydroxide and 1 M glycine (pH 10) was used as the stop solution for all three enzyme activity assays.
The compounds in DMSO solution (0.5 μL/well) were transferred to a black 96-well plate (the final titration started from 100 μM, a 12 or 24-point 2-fold dilution series). […] After 5 min of incubation at room temperature, the enzyme reaction was initiated by the addition of blue substrate (4MU-13-Glc) (33 μL/well). The final concentration of the blue substrate was 1.5 mM. The blue substrate reaction was terminated by the addition of 33 μL/well stop solution (1 M NaOH and 1 M glycine mixture, pH 10) after 30 min of incubation at 37° C. […] The selected compounds were further assayed under pH 5.0 and pH 7.0 to evaluate their selectivity under various pH conditions.

[7] = pH 5.0, mean ± SD, read-out: IC50 pH 5.0
[8] = pH 7.0, mean ± SD, read-out: IC50 pH 7.0

T1 sequence (P04062 40-536): as the sequence (P04062 40-536) above

Row | Compound | Kd (GCase [1]) | activity of α-galactosidase A on compound treatment (α-galactosidase A (GLA)) | GCase activity in patient cells [4] | activity of acid α-glucosidase on compound treatment (acid α-glucosidase (GAA)) | IC50 (wild-type GCase [6]; [7]) | IC50 (wild-type GCase [6]; [8]) | stabilization of GCase (melting point change) (wild-type GCase [2]) | concentration of GCase protein [5] | also measured
1 | CN(C)c1ccc2c(-c3ccc(C(=O)NCCOCCOCCOCCOCCC(=O)NCCCCCC(=O)Nc4ccc(-c5nc(NC6Cc7ccccc7C6)c6ccccc6n5)cc4)cc3C(=O)O)c3ccc(=[N+](C)C)cc-3oc2c1 [compound 160] | 7.1 nM | – | – | – | – | – | – | – | –
2 | CN(C)c1ccc2c(-c3ccc(C(=O)NCCCCCC(=O)Nc4ccc(-c5nc(NC6Cc7ccccc7C6)c6ccccc6n5)cc4)cc3C(=O)O)c3ccc(=[N+](C)C)cc-3oc2c1 [compound 158] | 79 nM | – | – | – | – | – | – | – | –
3 | CN(C)c1ccc2c(-c3ccc(C(=O)NCCOCCOCC(=O)Nc4ccc(-c5nc(NC6Cc7ccccc7C6)c6ccccc6n5)cc4)cc3C(=O)O)c3ccc(=[N+](C)C)cc-3oc2c1 [compound 159] | 126 nM | – | – | – | – | – | – | – | –
4 | OC[C@H]1CNC[C@@H](O)[C@@H]1O [IFG, Isofagomine, reference compound] | – | – | had no effect | – | – | – | stabilize wild-type GCase in a dose-dependent manner | did not have an effect | –

The next lines start with results.

Row | Kd (GCase [1]) | activity of α-galactosidase A on compound treatment (α-galactosidase A (GLA)) | GCase activity in patient cells [4] | activity of acid α-glucosidase on compound treatment (acid α-glucosidase (GAA)) | IC50 (wild-type GCase [6]; [7]) | IC50 (wild-type GCase [6]; [8]) | Compound | stabilization of GCase (melting point change) (wild-type GCase [2]) | concentration of GCase protein [5] | also measured
5 | – | not significantly changed | increased GCase activity | not significantly changed | 8.9 ± 1.3 nM | 6.6 ± 1 nM | c1ccc2c(c1)CC(Nc1nc(-c3ccsc3)nc3ccccc13)C2 [Compound 11g, N-(2,3-dihydro-1H-inden-2-yl)-2-(thiophen-3-yl)quinazolin-4-amine] | stabilize wild-type GCase in a dose-dependent manner; also recorded: increased the GCase melting point in a dose-dependent manner | significantly increased the concentration of GCase | maximum thermal shift (wild-type GCase [2]; pH 5.0): around 11 °C; type of inhibition (Lineweaver-Burk) (GCase [3]): linear mixed inhibition; decrease of inhibitory activity at pH 5.0 compared to pH 5.9 (wild-type GCase [6]; pH 5.0 vs pH 5.9): only dropped slightly; IC50 (wild-type GCase [6]; pH 5.9, mean ± SD, read-out: IC50 pH 5.9): 5.2 ± 0.6 nM
6 | – | not significantly changed | – | not significantly changed | 10.5 ± 1.5 nM | 9.4 ± 1.4 nM | c1ccc(-c2nc(NC3Cc4ccccc4C3)c3ccccc3n2)cc1 [Compound 11d, N-(2,3-dihydro-1H-inden-2-yl)-2-phenylquinazolin-4-amine] | stabilize wild-type GCase in a dose-dependent manner; also recorded: increased the GCase melting point in a dose-dependent manner | significantly increased the concentration of GCase | IC50 (wild-type GCase [6]; Table 5, pH 5.9, mean ± SD, read-out: IC50): 6.5 ± 0.7 nM
